In ChEMBL document CHEMBL2203036, “Discovery of 1-[2-(2,4-dimethylphenylsulfanyl)phenyl]piperazine (Lu AA21004): a novel multimodal compound for the treatment of major depressive disorder” (J Med Chem, 2011):

Experiments:
Cytochrome P450 3A4 = Cytochrome P450 3A4 (Homo sapiens, UniProt P08684); test: Inhibition of human recombinant CYP3A4 using resorufin benzyl ether after 30 mins by fluorescence spectrophotometric analysis; format: ADME
Cytochrome P450 2D6 = Cytochrome P450 2D6 (Homo sapiens, UniProt P10635); test: Inhibition of human recombinant CYP2D6 using 3-[2-(N,N-diethyl-N-methylamino)ethyl]-7-methoxy- 4-methylcoumarin after 45 mins by fluorescence spectrophotometric analysis; format: ADME
Cytochrome P450 2D6, sequence (P10635 whole entry): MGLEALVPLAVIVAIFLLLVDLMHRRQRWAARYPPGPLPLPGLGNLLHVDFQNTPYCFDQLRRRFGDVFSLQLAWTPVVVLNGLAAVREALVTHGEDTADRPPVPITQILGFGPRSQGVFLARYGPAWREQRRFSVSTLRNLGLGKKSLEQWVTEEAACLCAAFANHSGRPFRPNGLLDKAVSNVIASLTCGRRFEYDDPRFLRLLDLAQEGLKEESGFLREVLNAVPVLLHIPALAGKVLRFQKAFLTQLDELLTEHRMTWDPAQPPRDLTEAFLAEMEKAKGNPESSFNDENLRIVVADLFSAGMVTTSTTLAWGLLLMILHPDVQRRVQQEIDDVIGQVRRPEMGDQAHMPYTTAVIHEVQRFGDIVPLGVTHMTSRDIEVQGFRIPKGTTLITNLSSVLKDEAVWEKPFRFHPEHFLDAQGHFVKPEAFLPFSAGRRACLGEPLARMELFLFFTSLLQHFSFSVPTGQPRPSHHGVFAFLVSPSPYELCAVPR

Cytochrome P450 2C9 = Cytochrome P450 2C9 (Homo sapiens, UniProt P11712); test: Inhibition of human recombinant CYP2C9 using dibenzylfluorescein after 45 mins by fluorescence spectrophotometric analysis; format: ADME
Cytochrome P450 2C9, sequence (P11712 whole entry): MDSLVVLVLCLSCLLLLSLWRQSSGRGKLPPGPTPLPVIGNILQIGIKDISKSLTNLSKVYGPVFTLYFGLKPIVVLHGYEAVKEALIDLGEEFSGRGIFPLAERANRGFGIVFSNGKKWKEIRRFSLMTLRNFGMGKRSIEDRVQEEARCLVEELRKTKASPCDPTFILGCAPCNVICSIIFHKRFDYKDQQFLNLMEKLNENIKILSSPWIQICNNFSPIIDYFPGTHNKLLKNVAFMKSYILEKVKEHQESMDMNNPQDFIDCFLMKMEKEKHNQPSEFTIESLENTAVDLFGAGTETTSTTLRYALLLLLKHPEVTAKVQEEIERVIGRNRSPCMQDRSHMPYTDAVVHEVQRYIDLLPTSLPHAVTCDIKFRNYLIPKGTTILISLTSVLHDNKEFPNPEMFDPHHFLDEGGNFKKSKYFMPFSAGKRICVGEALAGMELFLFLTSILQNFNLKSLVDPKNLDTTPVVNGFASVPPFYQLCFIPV

Cytochrome P450 1A2 = molecular target: T1, Cytochrome P450 1A2 (Homo sapiens, UniProt P05177); test: Inhibition of human recombinant CYP1A2 using 7-ethoxy-3-cyanocoumarin after 28 mins by fluorescence spectrophotometric analysis; format: ADME
T1 sequence (P05177 whole entry): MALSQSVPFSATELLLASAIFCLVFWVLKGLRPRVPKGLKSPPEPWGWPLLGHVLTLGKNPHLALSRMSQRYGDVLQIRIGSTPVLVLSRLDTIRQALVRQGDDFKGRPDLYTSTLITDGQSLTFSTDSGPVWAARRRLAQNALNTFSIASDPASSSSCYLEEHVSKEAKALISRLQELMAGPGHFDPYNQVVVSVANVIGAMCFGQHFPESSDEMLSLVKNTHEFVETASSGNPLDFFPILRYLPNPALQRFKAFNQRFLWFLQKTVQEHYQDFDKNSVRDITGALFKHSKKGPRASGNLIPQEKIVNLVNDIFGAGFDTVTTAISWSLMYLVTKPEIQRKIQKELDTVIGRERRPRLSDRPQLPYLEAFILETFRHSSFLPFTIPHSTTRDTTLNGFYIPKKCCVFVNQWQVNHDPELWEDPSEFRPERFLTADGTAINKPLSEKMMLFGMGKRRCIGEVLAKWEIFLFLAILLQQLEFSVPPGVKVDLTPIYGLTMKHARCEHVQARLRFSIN

Liver microsomes [1] = test: Intrinsic clearance in rat liver microsomes at 1 uM after 60 mins by LC-MS/MS analysis; format: ADME, Microsome; settings: 1 h
Liver microsomes [2] = test: Intrinsic clearance in human liver microsomes at 1 uM after 60 mins by LC-MS/MS analysis; format: ADME, Microsome; settings: 1 h
[3] = Inhibition of NET-mediated [3H]NE in rat synaptosomes by scintillation counting; format: subcellular, Brain
[4] = molecular target: T2, Sodium-dependent dopamine transporter (Rattus norvegicus, UniProt P23977); test: Inhibition of DAT-mediated [3H]DA in rat synaptosomes by scintillation counting; format: subcellular, Brain
T2 sequence (P23977 whole entry): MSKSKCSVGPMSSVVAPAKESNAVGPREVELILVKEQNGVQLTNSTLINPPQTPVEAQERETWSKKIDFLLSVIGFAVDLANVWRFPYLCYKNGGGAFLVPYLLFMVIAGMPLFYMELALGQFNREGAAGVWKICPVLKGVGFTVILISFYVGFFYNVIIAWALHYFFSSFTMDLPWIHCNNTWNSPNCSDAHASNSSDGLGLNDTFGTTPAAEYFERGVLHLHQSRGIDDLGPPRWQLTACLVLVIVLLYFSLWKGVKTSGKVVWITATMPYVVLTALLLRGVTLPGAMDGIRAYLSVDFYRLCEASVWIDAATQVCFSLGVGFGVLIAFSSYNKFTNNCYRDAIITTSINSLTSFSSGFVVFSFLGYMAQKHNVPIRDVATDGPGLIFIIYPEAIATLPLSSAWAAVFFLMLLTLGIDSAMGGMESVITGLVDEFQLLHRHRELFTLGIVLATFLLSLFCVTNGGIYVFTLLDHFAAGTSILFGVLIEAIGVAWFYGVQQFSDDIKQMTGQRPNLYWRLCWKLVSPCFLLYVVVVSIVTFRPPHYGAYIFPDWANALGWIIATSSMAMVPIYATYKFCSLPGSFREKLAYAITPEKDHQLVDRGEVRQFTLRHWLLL

[5] = molecular target: Sodium-dependent serotonin transporter (Rattus norvegicus, UniProt P31652); test: Inhibition of SERT-mediated [3H]5HT uptake in rat synaptosomes by scintillation counting; format: subcellular, Brain
Sodium-dependent serotonin transporter, sequence (P31652 whole entry): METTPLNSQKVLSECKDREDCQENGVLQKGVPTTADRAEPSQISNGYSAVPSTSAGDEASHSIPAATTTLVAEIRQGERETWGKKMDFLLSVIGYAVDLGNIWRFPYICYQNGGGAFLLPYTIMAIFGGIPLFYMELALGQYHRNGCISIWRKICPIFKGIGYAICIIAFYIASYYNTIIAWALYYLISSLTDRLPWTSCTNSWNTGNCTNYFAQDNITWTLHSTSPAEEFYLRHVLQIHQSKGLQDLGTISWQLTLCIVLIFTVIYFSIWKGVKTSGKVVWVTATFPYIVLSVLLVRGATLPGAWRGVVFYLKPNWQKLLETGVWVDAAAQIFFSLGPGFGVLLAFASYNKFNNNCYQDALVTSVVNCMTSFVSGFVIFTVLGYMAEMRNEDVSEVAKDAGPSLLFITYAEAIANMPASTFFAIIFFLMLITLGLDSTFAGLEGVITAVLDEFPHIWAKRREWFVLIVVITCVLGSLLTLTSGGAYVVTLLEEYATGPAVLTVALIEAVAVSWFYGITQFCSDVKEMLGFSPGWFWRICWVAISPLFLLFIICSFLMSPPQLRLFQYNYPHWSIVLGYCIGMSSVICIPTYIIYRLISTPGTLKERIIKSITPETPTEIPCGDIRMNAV

[6] = molecular target: T3, 5-hydroxytryptamine receptor 1A (Homo sapiens, UniProt P08908); test: biochemical; format: cell-based, HEK293
T3 sequence (P08908 whole entry): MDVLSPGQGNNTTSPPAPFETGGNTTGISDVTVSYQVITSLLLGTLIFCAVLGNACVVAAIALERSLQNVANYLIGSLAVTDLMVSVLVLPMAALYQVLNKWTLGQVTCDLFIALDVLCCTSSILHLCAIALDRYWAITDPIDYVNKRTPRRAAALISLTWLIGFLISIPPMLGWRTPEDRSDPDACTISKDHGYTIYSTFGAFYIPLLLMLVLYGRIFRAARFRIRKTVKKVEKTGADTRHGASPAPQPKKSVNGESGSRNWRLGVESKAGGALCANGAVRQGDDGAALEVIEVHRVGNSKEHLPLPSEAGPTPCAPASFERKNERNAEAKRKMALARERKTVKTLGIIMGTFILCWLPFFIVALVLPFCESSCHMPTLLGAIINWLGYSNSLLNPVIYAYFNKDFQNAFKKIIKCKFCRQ
Description: Displacement of [3H]5-carboxamidotryptamine to human 5HT1A expressed in HEK293 cells by filter binding assay

[7] = molecular target: T4, 5-hydroxytryptamine receptor 3A (Homo sapiens, UniProt P46098); test: Displacement of [3H]granisetron from human 5HT3A receptor expressed in HEK293 cells by filter binding assay; format: cell-based
T4 sequence (P46098 whole entry): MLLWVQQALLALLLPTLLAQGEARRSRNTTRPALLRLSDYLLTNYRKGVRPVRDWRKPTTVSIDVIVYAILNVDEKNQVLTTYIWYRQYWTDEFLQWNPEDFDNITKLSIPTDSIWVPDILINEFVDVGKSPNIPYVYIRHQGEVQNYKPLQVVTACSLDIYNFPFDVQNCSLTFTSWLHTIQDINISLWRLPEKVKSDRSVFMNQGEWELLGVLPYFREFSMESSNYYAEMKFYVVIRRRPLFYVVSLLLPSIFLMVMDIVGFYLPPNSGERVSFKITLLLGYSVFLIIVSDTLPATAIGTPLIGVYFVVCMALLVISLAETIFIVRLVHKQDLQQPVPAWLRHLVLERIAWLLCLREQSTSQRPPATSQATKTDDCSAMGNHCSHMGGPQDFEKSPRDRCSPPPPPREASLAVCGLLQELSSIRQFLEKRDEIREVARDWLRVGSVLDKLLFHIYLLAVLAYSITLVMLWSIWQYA

Rattus norvegicus [8] = species: Rattus norvegicus; test: Selectivity ratio of IC50 for NET to IC50 for SERT in rat synaptosomes; settings: Brain
Rattus norvegicus [9] = species: Rattus norvegicus; test: Selectivity ratio of IC50 for DAT to IC50 for SERT in rat synaptosomes; settings: Brain
[10] = molecular target: Alpha-1A adrenergic receptor (Rattus norvegicus, UniProt P43140); test: Binding affinity to rat alpha1 adrenergic receptor
Alpha-1A adrenergic receptor, sequence (P43140 whole entry): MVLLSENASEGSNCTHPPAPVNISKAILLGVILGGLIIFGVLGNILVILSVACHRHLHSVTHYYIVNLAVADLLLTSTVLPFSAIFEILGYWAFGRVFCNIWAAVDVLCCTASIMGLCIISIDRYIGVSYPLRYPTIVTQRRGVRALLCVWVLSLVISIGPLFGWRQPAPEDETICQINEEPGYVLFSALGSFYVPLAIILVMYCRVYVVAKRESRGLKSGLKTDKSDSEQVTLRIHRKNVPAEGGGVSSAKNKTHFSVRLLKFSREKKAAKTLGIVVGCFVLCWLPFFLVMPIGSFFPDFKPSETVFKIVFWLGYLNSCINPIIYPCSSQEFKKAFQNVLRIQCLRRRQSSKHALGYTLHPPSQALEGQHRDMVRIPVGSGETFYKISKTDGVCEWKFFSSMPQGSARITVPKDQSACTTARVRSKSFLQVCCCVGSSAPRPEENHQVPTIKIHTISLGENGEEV

[11] = molecular target: 5-hydroxytryptamine receptor 2C (Homo sapiens, UniProt P28335); test: Binding affinity to human 5HT2C receptor
5-hydroxytryptamine receptor 2C, sequence (P28335 whole entry): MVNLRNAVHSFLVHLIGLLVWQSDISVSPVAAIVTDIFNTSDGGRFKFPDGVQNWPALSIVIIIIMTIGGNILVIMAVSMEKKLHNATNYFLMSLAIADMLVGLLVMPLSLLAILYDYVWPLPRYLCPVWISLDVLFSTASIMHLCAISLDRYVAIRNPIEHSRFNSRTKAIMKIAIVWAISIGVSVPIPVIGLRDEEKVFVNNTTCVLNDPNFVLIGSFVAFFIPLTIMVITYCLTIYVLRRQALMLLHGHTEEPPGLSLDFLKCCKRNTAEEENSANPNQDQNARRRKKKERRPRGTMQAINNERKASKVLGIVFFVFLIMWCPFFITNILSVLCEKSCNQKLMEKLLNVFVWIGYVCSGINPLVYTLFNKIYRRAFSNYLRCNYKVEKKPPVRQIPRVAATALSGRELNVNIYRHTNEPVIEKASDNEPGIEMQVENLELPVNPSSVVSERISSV

[12] = Oral bioavailability in rat at 2 mg/kg; format: ADME, organism-based; settings: in vivo
Rattus norvegicus [13] = test: Hepatic clearance in rat at 1 mg/kg, iv; format: ADME, organism-based, Liver; parameters: dose 1 mg/kg, route intravenous; settings: in vivo
[14] = molecular target: T2, Sodium-dependent dopamine transporter; test: Inhibition of rat DAT
[15] = Inhibition of rat NET
Rattus norvegicus [16] = species: Rattus norvegicus; test: Selectivity ratio of IC50 for rat DAT to IC50 for SERT in rat synaptosomes; settings: Brain
Rattus norvegicus [17] = species: Rattus norvegicus; test: Selectivity ratio of IC50 for rat NET to IC50 for SERT in rat synaptosomes; settings: Brain
Rattus norvegicus [18] = test: Antidepression activity in sc dosed Harlan rat assessed as increase in extracellular 5HT level in ventral hippocampus region measured up to 180 mins by microdialysis method relative to vehicle-treated control; format: functional

Cytochrome P450 3A4, sequence (P08684 whole entry): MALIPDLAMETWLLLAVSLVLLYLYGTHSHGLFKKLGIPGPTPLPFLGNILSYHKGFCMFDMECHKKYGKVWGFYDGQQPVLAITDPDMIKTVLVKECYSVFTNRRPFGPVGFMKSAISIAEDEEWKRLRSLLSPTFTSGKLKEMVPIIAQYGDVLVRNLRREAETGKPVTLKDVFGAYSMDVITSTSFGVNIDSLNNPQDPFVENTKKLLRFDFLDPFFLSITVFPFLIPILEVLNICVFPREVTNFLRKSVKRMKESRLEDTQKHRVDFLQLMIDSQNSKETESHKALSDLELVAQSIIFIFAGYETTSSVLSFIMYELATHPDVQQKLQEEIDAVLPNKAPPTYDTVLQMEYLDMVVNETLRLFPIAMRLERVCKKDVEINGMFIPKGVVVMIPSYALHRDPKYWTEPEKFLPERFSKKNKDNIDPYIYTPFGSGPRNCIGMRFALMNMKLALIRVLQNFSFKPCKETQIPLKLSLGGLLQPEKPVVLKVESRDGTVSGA

Row | SMILES | IC50 [5] | Ki [6] | Ki [7] | other results
1 | Cc1ccc(Sc2ccccc2N2CCNCC2)cc1C.Cl | 5.8 nM | 53 nM | 33 nM | IC50 (Cytochrome P450 3A4): 11 µM; IC50 (Cytochrome P450 2D6): 2800 nM; IC50 (Cytochrome P450 2C9): 34 µM; IC50 (Cytochrome P450 1A2): 26 µM; CLH (Liver microsomes [1]): 290 mL/min; CLH (Liver microsomes [2]): 0.5 L/min; IC50 [3]: 880 nM; IC50 [4]: 120 nM; Ratio IC50 (Rattus norvegicus [8]): 150; Ratio IC50 (Rattus norvegicus [9]): 21
2 | Cc1ccc(Sc2ccc(C)cc2N2CCNCC2)c(C)c1 | 25 nM | – | 150 nM | –
3 | COc1cccc(Sc2ccccc2N2CCNCC2)c1OC | 37 nM | – | – | –
4 | Fc1ccc(Sc2ccccc2N2CCNCC2)cc1 | 67 nM | 39 nM | 53 nM | –
5 | COc1ccc(Sc2ccccc2N2CCNCC2)c(Cl)c1 | 4.3 nM | 94 nM | 12 nM | –
6 | Cc1cccc(Sc2ccccc2N2CCNCC2)c1 | 54 nM | 100 nM | 64 nM | –
7 | Cc1ccc(Sc2c(C)cccc2N2CCNCC2)c(C)c1 | 540 nM | 540 nM | 670 nM | –
8 | Cc1ccccc1Sc1ccccc1N1CCNCC1 | 51 nM | 14 nM | 32 nM | –
9 | COc1cccc(Sc2ccccc2N2CCNCC2)c1 | 53 nM | 140 nM | 62 nM | –
10 | Cc1ccc(Sc2ccccc2N2CCNCC2)c(Cl)c1.Cl | 9.7 nM | 78 nM | 7.3 nM | IC50 (Cytochrome P450 3A4): 5.5 µM; IC50 (Cytochrome P450 2D6): 1500 nM; IC50 (Cytochrome P450 2C9): 40 µM; IC50 (Cytochrome P450 1A2): 34 µM; CLH (Liver microsomes [1]): 120 mL/min; CLH (Liver microsomes [2]): 0.6 L/min; IC50 [3]: 340 nM; IC50 [4]: 320 nM; Ratio IC50 (Rattus norvegicus [8]): 35; Ratio IC50 (Rattus norvegicus [9]): 33
11 | Cc1ccc(Oc2ccccc2N2CCNCC2)c(C)c1 | 250 nM | 65 nM | 270 nM | –
12 | Cc1ccc(Sc2cc(C)ccc2N2CCNCC2)c(C)c1 | 200 nM | – | 45 nM | –
13 | Clc1cccc(Sc2ccccc2N2CCNCC2)c1Cl | – | – | – | IC50 (Cytochrome P450 2C9): 40 µM; Ratio IC50 (Rattus norvegicus [8]): 7; Ratio IC50 (Rattus norvegicus [9]): 1
14 | COc1ccc(Sc2ccccc2N2CCNCC2)c(OC)c1 | 7.6 nM | 330 nM | 32 nM | –
15 | COc1ccc(Sc2ccc(C)cc2N2CCNCC2)cc1 | 7.9 nM | 4000 nM | 190 nM | Ki [10]: < 100 nM; Ki [11]: < 100 nM
16 | Cc1ccc(Sc2ccccc2N2CCCNCC2)c(C)c1 | 130 nM | – | 27 nM | –
17 | Cl.Clc1ccc(Sc2ccccc2N2CCNCC2)cc1 | 13 nM | 69 nM | 36 nM | bioavailability [12]: 26%; CLH (Rattus norvegicus [13]): 5.8 L/h/kg; IC50 (Cytochrome P450 3A4): 6.8 µM; IC50 (Cytochrome P450 2D6): 400 nM; IC50 (Cytochrome P450 2C9): 31 µM; IC50 (Cytochrome P450 1A2): 53 µM; CLH (Liver microsomes [1]): 70 mL/min; CLH (Liver microsomes [2]): 0.6 L/min; IC50 [14]: 45 nM; IC50 [15]: 190 nM; IC50 [3]: 160 nM; IC50 [4]: 37 nM; Ratio IC50 (Rattus norvegicus [8]): 12; Ratio IC50 (Rattus norvegicus [9]): 2.8; Ratio IC50 (Rattus norvegicus [16]): 3.5; Ratio IC50 (Rattus norvegicus [17]): 15
18 | COc1ccc(Sc2ccccc2N2CCNCC2)cc1OC | 15 nM | 160 nM | 86 nM | –

Row | SMILES | IC50 [5] | Ki [6] | Ki [7] | other results
19 | O=C1CC2(CCCC2)CC(=O)N1CCCCN1CCN(c2ncccn2)CC1 [BUSPIRONE] | – | – | > 10000 nM | –
20 | CN(C)CCC[C@@]1(c2ccc(F)cc2)OCc2cc(C#N)ccc21 [ESCITALOPRAM] | – | – | – | Activity (Rattus norvegicus [18]): 700%
21 | Cc1ccc(Sc2ccc(C)cc2N2CCNCC2)cc1 | 20 nM | 2800 nM | 260 nM | –
22 | Cc1ccc(Sc2ccccc2)c(N2CCNCC2)c1 | 150 nM | 1100 nM | 310 nM | –
23 | Cc1ccc(Sc2ccc(F)cc2)c(N2CCNCC2)c1 | 68 nM | 1100 nM | 440 nM | –
24 | COc1ccccc1Sc1ccccc1N1CCNCC1 | 330 nM | 59 nM | 52 nM | –
25 | Cl.Clc1ccc(Sc2ccccc2N2CCNCC2)c(Cl)c1 | 5.2 nM | 78 nM | 26 nM | IC50 (Cytochrome P450 3A4): 4.4 µM; IC50 (Cytochrome P450 2D6): 900 nM; IC50 (Cytochrome P450 2C9): 34 µM; IC50 (Cytochrome P450 1A2): 27 µM; CLH (Liver microsomes [1]): 38 mL/min; CLH (Liver microsomes [2]): 0.5 L/min; IC50 [3]: 120 nM; IC50 [4]: 250 nM; Ratio IC50 (Rattus norvegicus [8]): 23; Ratio IC50 (Rattus norvegicus [9]): 48
26 | Cc1cccc(Sc2ccccc2N2CCNCC2)c1C | 4.4 nM | – | 29 nM | IC50 (Cytochrome P450 1A2): 24 µM; IC50 [4]: 170 nM; Ratio IC50 (Rattus norvegicus [8]): 20; Ratio IC50 (Rattus norvegicus [9]): 38
27 | Cc1ccc(Sc2ccc(Cl)cc2)c(N2CCNCC2)c1 | 9.5 nM | 2500 nM | 500 nM | –
28 | c1ccc(Sc2ccccc2N2CCNCC2)cc1 | 390 nM | 30 nM | 64 nM | –
29 | Cc1ccc(Sc2ccccc2N2CCNCC2)cc1.Cl | 18 nM | 44 nM | 56 nM | IC50 (Cytochrome P450 3A4): 16 µM; IC50 (Cytochrome P450 2D6): 2700 nM; IC50 (Cytochrome P450 2C9): 40 µM; IC50 (Cytochrome P450 1A2): 40 µM; CLH (Liver microsomes [1]): 260 mL/min; CLH (Liver microsomes [2]): 1.1 L/min; IC50 [3]: 460 nM; IC50 [4]: 110 nM; Ratio IC50 (Rattus norvegicus [8]): 25; Ratio IC50 (Rattus norvegicus [9]): 6.1
30 | FC(F)(F)c1ccc(Sc2ccccc2N2CCNCC2)cc1 | 6.9 nM | 240 nM | 140 nM | –
31 | Cc1ccc(Sc2cccc(C)c2N2CCNCC2)c(C)c1 | 44 nM | 420 nM | 160 nM | –
32 | Clc1ccc(Sc2ccccc2N2CCNCC2)cc1Cl | 4.7 nM | 68 nM | 110 nM | –
33 | COc1ccc(Sc2ccccc2N2CCNCC2)cc1 | 8 nM | 130 nM | 36 nM | –
34 | Cc1ccc(Sc2ccccc2N2CCN(C)CC2)c(C)c1 | 680 nM | 120 nM | 130 nM | –
35 | CC(C)(C)c1ccc(Sc2ccccc2N2CCNCC2)cc1 | 2100 nM | 2500 nM | 450 nM | –
36 | COc1cc(C)ccc1Sc1ccccc1N1CCNCC1 | 11 nM | 210 nM | 17 nM | –
